Measurements as given in patent US20120148510A1, “Compositions and Methods for Improving the Appearance of Facial Pores” (priority 2010, published 2012).
Where “and” joins values, the source holds several entries; their conditions need not be identical. Equal entries are not always repeated.

Assays:
facial pores = assay: 9 week in vivo split face study, Pore Area Fraction by image analysis; design: species or system human; conditions: vehicle + 5% Hexyldecanol, twice daily topical on face, 8 weeks, upper cheek area, FIG. 1
Experimental: A 9 week in vivo study was conducted using a round robin, vehicle controlled, split face design including a 1 week normalization period with 330 subjects.
Treatment Regimen—The regimen begins with a one week washout period. Each morning the subject is to wash their face with a suitable cleanser (e.g., Olay Natural Science Deep Purify Cleanser, available from The Procter & Gamble Company, Cincinnati, Ohio), gently dry with a towel, apply a stock moisturizer (e.g., Vehicle as described in Table 2 with 3% glycerine, no panthenol, and 0.3% disodium EDTA) to the appropriate side of the face, wait 5 minutes, and then apply a UV blocking lotion (e.g., Olay Complete All Day Moisturizing Lotion SPF 15, available from The Procter & Gamble Company, Cincinnati, Ohio). […]
Images of the facial treatment sites are captured at baseline (week 0), and after 4 and 8 weeks of treatment and analyzed for changes to facial pores. […]
The region of interest (ROI), in this case the upper cheek area, was marked manually based on 12 predefined facial landmarks around the cheek—for example, corners of the eye, bridge of the nose, corners of the mouth. The degree of facial pores in the ROI were quantified objectively using image analysis algorithms based on an Optimus software platform. […]

IL-1 beta = assay: IL-1 inhibition assay (ICAM-1 promoter/luciferase reporter in ECV304 cells); format: cell-based, Human; conditions: 5% concentration of hexyldecanol diluted to 0.05%; four replicates; 10 U/ml IL-1 beta, 4 hours
Experimental: A. IL-1 Inhibition Assay Protocol
One vial of Human ECV304 cells stably transfected with human ICAM-1 promoter/luciferase reporter construct (pGL3 basic plasmid) and CMV-βgal/RSV-neo plasmid DNA (clone E1.3-22) is placed in a 75 cm flask with 15 ml of complete maintenance media defined as follows: M199 (Gibco, cat #11150-059, 1× liquid, 500 ml containing Earle's salts, Na bicarbonate, and L-glutamine), 10% FBS (certified, heat-inactivated from Gibco, cat #10082-147), 10 ug/ml gentamicin (Gibco, cat #15710-015—10 mg/ml soln (1000×), and 250 μg/ml geneticin antibiotic (active G418 from Gibco, cat 10131-035-50 mg/ml soln).
When cells are 85-90% confluent remove media. Dilute (10×) trypsin-EDTA (Gibco cat #15400-039) to (1×) with HBSS and add 3 ml of (1×) trypsin-EDTA to flask and rinse. Remove trypsin and add a fresh 3 ml/flask and incubate 3-4 min. Strike end of flask to detach cells, and then add 6 ml of complete maintenance medium thoroughly washing the flask and place liquid in a conical tube. Then rinse each flask with an additional 3 ml of maintenance media. Spin tube at 200×g (approx 900 rpm for centrifuge in 3N066B) for 7 minutes. Aspirate supernatant and resuspend cells in 10 ml of maintenance media. Place 10 ul of cell suspension into a hemocytometer and count cells in 5 squares. Use following equation—total# of cells counted ×dilution×104/# of squares counted=cells/ml. […]

[1] = tested on: HAS-2 gene (Hyaluronic Acid Synthase-2 gene); assay: Hyaluronic Acid (HA) Synthase expression, keratinocyte culture, Affymetrix GeneChip microarray; format: cell-based; conditions: 10 micro molar hexyldecanol; human telomerized keratinocytes; 6 hours exposure; six GeneChips; p-value=0.0366
Experimental: B. Hyaluronic Acid (HA) Synthase Expression
Individual experiments (referred to as batches) are generally comprised of 60 Affymetrix GeneChips® (referred to as “instances”) containing 6 vehicle control samples, 2 positive control samples and 52 individual test material samples. Duplication of test materials is performed across batches. In vitro testing is performed in 6-well plates to provide sufficient RNA for GeneChip® analysis (2-4 ug total RNA yield/well). Human telomerized keratinocytes are grown in EpiLife® media with 1× Human Keratinocyte Growth Supplement (Invitrogen) on collagen I coated cell culture flasks and plates (Becton Dickinson). Cells are seeded into 6-well plates at 20,000 cells/cm2 24 hours before chemical exposure. At t=−24 hours cells are trypsinized from T-75 flasks and plated into 6-well plates in basal growth medium. At t=0 media is removed and replaced with the appropriate dosing solution as per the experimental design. Dosing solutions are prepared the previous day in sterile 4 ml Falcon snap cap tubes. After 6 hours of chemical exposure cells are viewed and imaged. […]
2. Transcriptional Screening—RNA Analyzed with Gene Chips […]
Data quality was determined using a variety of statistical measures, including t-tests, scatter biplots, and principal components analysis, depending upon the source and character of the data. […]

For `CCCCCCCCC(CO)CCCCCC` (stereo not drawn) [Hexyldecanol, 2-hexyldecan-1-ol], the “reduction of Pore Area Fraction versus vehicle control” value (facial pores) was “significantly (p<=0.10) reducing Pore Area Fraction better than the control”, the “reduction of IL-1 stimulatory activity” value (IL-1 beta) was 24% and 18% (2×) and 21% and the “HAS-2 gene transcriptional expression level, average fold change” value [1] was 1.336 fold change.
